Test results taken from ChEMBL document CHEMBL5252530, “Biological importance of structurally diversified chromenes” (Eur J Med Chem, 2016).
Converted amounts (≈) assume the structure as drawn.

Test system: Mycobacterium tuberculosis variant bovis
Assay: Antibacterial activity against Mycobacterium bovis BCG assessed as reduction in cell viability measured after 14 days by microdrop agar proportion test
Assay type: functional
Details: 336 h, time 14 day

Work on COC(=O)c1ccc(C(=O)Oc2ccc3c(c2)OC(C)(C)C=C3C)cc1 yielded an MIC of 2 µg/mL (≈ 5.68 µM).
